Experimental data taken from patent US8603498B2, “Lipo-phosphated or lipo-sulphated compound, compositions comprising it and topical uses thereof” (Sederma, S.A.S., priority 2010, dated 2013).

Test system: collagen I
Experiment: Synthesis of collagen I on human dermal fibroblast (immunolabeling)
Format: cell-based
Conditions: 10^−6%, positive control
Procedure: Normal human fibroblasts (NHF) are cultivated in MW24 plates for 24 hours. The cells are contacted or not with the Lipo-Phosphomalate of the invention at various concentrations for 7 days. The synthesis of collagen I produced by the cells is then quantified by immunolabeling fixed on the layers using a specific antibody. Quantification by image analysis is then performed on the photos. TGF-β1 is used as positive control.
An analysis of variance was performed on the data (cases treated compared with untreated cases). In the case of identity of variances, a Student't test was then performed on the means.

## TGF- β1: positive control for laminin and collagen I synthesis
  collagen I % Variation/control: +1374%;
  collagen I AFU mean: 55 +/− 17.6 AFU
